What was measured:
in vivo = conditions: mouse, in vivo, po
mouse = assay: in vivo; conditions: oral route, even at a dose of 4,000 mg./kg.
[1] = test system: edema induced by carrageenan; assay: Anti-inflammatory activity, carrageenin-induced oedema; type: in vivo, rat; conditions: po; 500 mg/kg p.o. rat; read-out: % inhibition of edema induced by carrageenan
From the text: Beginning, therefore, with D-glucose, we have prepared 1,2:5,6-di-O-isopropylidene-α-D-glucofuranose (II): [drawing 2] as well as 1,2-O-isopropylidene-α-D-glucofuranose and 1,2-O-isopropylidene-3,5,6-tri-O-benzyl-α-D-glucofuranose (1; Glen W. L., Myers G. S., Grant G. A., J. Chem. Soc., 2568/1951; (2) Meyer A. S., Reichstein T., Helv. Chim. Acta, 29, 139/1946; (3) Huber G., Rossi A., Helv. Chim. Acta, 51, 1185/1968) and have compared these compounds with (I) for anti-inflammatory activity against carrageenin-induced oedema (500 mg/kg, p.o. in rats).

edema induced by dextran = assay: Anti-inflammatory activity, dextran-induced edema; type: in vivo, rat; conditions: po; 500 mg/kg p.o. rat; read-out: % inhibition of edema induced by dextran
Method: (§1) Pharmacological tests were carried out to evaluate the acute toxicity, anti-inflammatory and capillary permeability action, antipyretic, analgesic and anti-spasmodic in vitro action.

[2] = test system: edema induced by formalin; assay: Anti-inflammatory activity, formalin-induced edema; type: in vivo, rat; conditions: po; 500 mg/kg p.o. rat; read-out: % inhibition of edema induced by formalin
Method: as §1

Antipyretic activity = type: in vivo, rat; conditions: for Antipyretic activity (potency in comparison with aspirin = 100): 400 mg/kg p.o. rat; for Antipyretic action (in words): rat, in vivo
Method: as §1

[3] = Analgesic activity, hot plate test; type: in vivo, mouse; conditions: po; 500 mg/kg p.o. mouse; hot plate test; read-out: Analgesic activity, increase of reaction time %
Method: as §1

[4] = Analgesic activity, protection from writhing; type: in vivo, mouse; conditions: po; 500 mg/kg p.o. mouse; read-out: Analgesic activity, protection from writhing %
Method: as §1

spasm by histamine = assay: Antispasmodic activity in vitro, spasm by histamine
Method: as §1

spasm by acetylcholine = assay: Antispasmodic activity in vitro, spasm by acetylcholine
Method: as §1

[5] = Analgesic action (overall); conditions: mouse, in vivo
Method: as §1

[6] = background; cited from earlier work
capillary permeability = assay: Capillary permeability test; conditions: 500 mg/kg p.o. mouse
Method: as §1

granuloma = assay: Granuloma cotton pellet test; conditions: for inhibition in vivo at 200 mg/kg: Rattus norvegicus, po, read-out: % inhibition of granuloma
Method: as §1

[7] = test system: oedema induced by carrageenin, dextran and formalin; assay: Anti-inflammatory activity tests (oedema by carrageenin, dextran and formalin); type: in vivo; conditions: rat
Method: as §1

[8] = Preliminary pharmacological screening (overall); type: in vivo
Method: as §1

SMILES | LD50 (in vivo) [mg/kg] | Oral toxicity / tolerance (in words) (mouse) | inhibition in vivo at 500 mg/kg [1] [%] | inhibition in vivo at 500 mg/kg (edema induced by dextran) [%] | inhibition in vivo at 500 mg/kg [2] [%] | Antipyretic activity (potency in comparison with aspirin = 100) (Antipyretic activity) [%] | Antipyretic action (in words) (Antipyretic activity) | change in vivo at 500 mg/kg [3] [%] | inhibition in vivo at 500 mg/kg [4] [%] | Antispasmodic activity in vitro, ED50, inhib. of spasm by histamine (spasm by histamine) [µg/mL] | Antispasmodic activity in vitro, ED50, inhib. of spasm by acetylcholine (spasm by acetylcholine) [µg/mL] | Analgesic action (in words) [5] | Known pharmacological activity (in words) [6] | Capillary permeability, decrease % (capillary permeability) [%] | inhibition in vivo at 200 mg/kg (granuloma) [%] | Activity against spasms produced by acetylcholine (in words) (spasm by acetylcholine) | Anti-inflammatory potency compared with aspirin and phenylbutazone (in words) [7] | Inhibition of oedema induced by carrageenin, dextran and formalin, compared with (I) (in words) [7] | Spectrum and potency of action in comparison with (I) (in words) [8] | Inhibitory activity in the granuloma cotton pellet test (in words) (granuloma; rat, in vivo)
CCOC1O[C@H]([C@@H](COCc2ccccc2)OCc2ccccc2)[C@H](OCc2ccccc2)[C@H]1O (stereo partly drawn) [I, ethyl 3,5,6-tri-O-benzyl-D-glucofuranoside, reference compound] | > 4000 | well tolerated | 20 | 0 | 14 | 9 | little or no activity | 10 | 0 | 20 | 30 | moderate or nil | anti-inflammatory and anti-allergic activity | 48 | 0 | – | – | – | – | –
C=CCOC1C(C2COC(C)(C)O2)OC2OC(C)(C)OC21 [IX, 3-O-allyl-1,2:5,6-di-O-isopropylidene-α-D-glucofuranose] | > 4000 | well tolerated | 68 | 39 | 29 | 44 | retained | 0 | 20 | 60 | 60 | – | – | 43 | 16 | moderately active | as potent as or more potent than aspirin and phenylbutazone | clearly more active than (I) | analogous or even better spectrum and potency of action | some inhibitory activity

Reference: patent US4251520A, “Glucofuranose derivatives” (priority 1976, dated 1981)
